The source of these data is patent US20040067592A1, “Process for controlling microbial contamination of polymeric emulsions using carbon dioxide detection” (priority 2002, published 2004).

The subject of assay [1] is Gluconoacetobacter liquefaciens. Briefly: Dilution plate count on potato dextrose agar of inoculated AIRFLEX 400 emulsion after biocide addition. Type of assay: cell-based. As for the experimental part:
(§1) In an effort to determine the efficacy of carbon dioxide measurement as a detection mechanism for microbial growth, AIRFLEX 400 (1600 grams) poly(vinyl alcohol) stabilized (some biocide present) vinyl acetate/ethylene polymeric emulsion was inoculated with Gluconoacetobacter liquefaciens. The resulting concentration of Gluconoacetobacter liquefaciens in the Airflex 400 emulsion was measured via a dilution plate count on potato dextrose agar and found to be 5.4×10^4 cfu/ml. The contaminated emulsion was placed in a 2L plastic Nalgene container. The modified cover, equipped with the carbon dioxide sensor and vent hole, described in Example 1 was tightly screwed on. The headspace carbon dioxide level began rising above background (˜400 ppm) within a matter of minutes. After continually monitoring this sample for 2 days, the headspace carbon dioxide concentration leveled out at about 1600 ppm.
(§2) The sample was then monitored for headspace carbon dioxide concentration as described in Examples 1 and 2. After continually monitoring this sample for 2 days the headspace carbon dioxide concentration leveled out at about 1150 ppm. A sample of the AIRFLEX 400 poly(vinyl alcohol) stabilized vinyl acetate/ethylene polymeric emulsion was removed from the container and the concentration of Gluconoacetobacter liquefaciens was measured on potato dextrose agar using a dilution plate count method.
as §2, with “To the same contaminated sample described in Example 3 was added an additional 375 ppm DGH to further reduce the Gluconoacetobacter liquefaciens concentration. The” for “The”, “for 3” for “for 2”, “about 1000” for “about 1150”
(§3) To the same contaminated sample described in Example 4 was added an additional 350 ppm DGH to further reduce the Gluconoacetobacter liquefaciens concentration. The sample was then monitored for headspace carbon dioxide concentration as described in Examples 1 and 2. After continually monitoring this sample for 3 days the headspace carbon dioxide concentration leveled out at about 800 ppm. A sample of the AIRFLEX 400 emulsion was removed from the container and the concentration of Gluconoacetobacter liquefaciens was measured on potato dextrose agar using a dilution plate count method.

Assay [2] has the same test system. The assay is described as follows: Headspace carbon dioxide concentration over inoculated AIRFLEX 400 emulsion after biocide addition. It counts as cell-based.
Description: Sterile AIRFLEX® 400 (1600 grams) poly(vinyl alcohol) stabilized vinyl acetate/ethylene polymeric emulsion was placed in a 2L plastic Nalgene container. The plastic cover was modified with two ports. The first port was used to mount and insert the carbon dioxide sensor and the second, much smaller diameter port was left open to the atmosphere to permit venting and a constant pressure within the container. A Vaisala GMT222 direct reading carbon dioxide transmitter connected to a data logger and computer was used as the measuring device. The cover was then screwed on tightly and the headspace carbon dioxide concentration measured over the course of 3 days. During this entire monitoring period the headspace carbon dioxide concentration remained steady at approximately 400 ppm.
as §1
To the same contaminated sample described in Example 2 was added 400 ppm of dodecylguanidine hydrochloride (DGH) biocide to reduce the Gluconoacetobacter liquefaciens concentration.
as §2
as §3, with “3” for “4”, “375” for “350”, “1000” for “800”, “400 poly(vinyl alcohol) stabilized vinyl acetate/ethylene polymeric” for “400”
as §3

Setting [3] is: Example 3, biocide 400 ppm, time 24 hour.
Where [4] appears, read: Example 4, biocide 375 ppm (additional), time 96 hour.
Setting [5] is: Example 5, biocide 350 ppm (additional), time 96 hour.

Structures can show the parent of a compound that is named as a salt.

Regarding `CCCCCCCCCCCCNC(=N)N` [DGH, dodecylguanidine hydrochloride], the “Gluconoacetobacter liquefaciens contamination level” value in assay [1] (Example 3: 400 ppm DGH added to contaminated AIRFLEX 400 (5.4×10^4 cfu/ml before), after 2 days) is on record as 1.30×10^4 cfu/ml; in assay [1] (Example 4: additional 375 ppm DGH added to Example 3 sample (400 ppm DGH), after 3 days) it was 4.40×10^3 cfu/ml; in assay [1] (Example 5: additional 350 ppm DGH added to Example 4 sample (400 + 375 ppm DGH), after 3 days), 3.20×10^2 cfu/ml. The Contamination is on record as 1.3 × 10^4 CFU/ml in assay [1] (setting [3]), 4.4 × 10^3 CFU/ml in assay [1] (setting [4]) and 3.2 × 10^2 CFU/ml in assay [1] (setting [5]). Moreover, the “headspace carbon dioxide concentration leveled out” value in assay [2] (Example 3: 400 ppm DGH added to contaminated AIRFLEX 400 (5.4×10^4 cfu/ml, 1600 ppm CO2 before), monitored 2 days, background ~400 ppm) was “about 1150 ppm”; in assay [2] (Example 4: additional 375 ppm DGH added to Example 3 sample (400 ppm DGH), monitored 3 days), “about 1000 ppm”; in assay [2] (Example 5: additional 350 ppm DGH added to Example 4 sample (400 + 375 ppm DGH), monitored 3 days), “about 800 ppm”. The CO2 in assay [2] (setting [3]) was found to be 1150 ppm; in assay [2] (setting [4]), 1000 ppm; in assay [2] (setting [5]), 800 ppm.
